Ki data for four molecules are collected here from BindingDB's records for PubMed 1356154 (Dupont Pharmaceuticals, 1992).

Values joined by “and” are separate entries in the source; they are usually repeats but may differ in a detail not shown here. Identical values can stand only once.

The assay addresses D(2) dopamine receptor (Rattus norvegicus, UniProt P61169).

Broadly, the Ki is the dissociation constant of the complex between target and ligand, obtained from inhibition or displacement. Read a low Ki as a stronger hold on the target.

Sequence of D(2) dopamine receptor (P61169 whole entry): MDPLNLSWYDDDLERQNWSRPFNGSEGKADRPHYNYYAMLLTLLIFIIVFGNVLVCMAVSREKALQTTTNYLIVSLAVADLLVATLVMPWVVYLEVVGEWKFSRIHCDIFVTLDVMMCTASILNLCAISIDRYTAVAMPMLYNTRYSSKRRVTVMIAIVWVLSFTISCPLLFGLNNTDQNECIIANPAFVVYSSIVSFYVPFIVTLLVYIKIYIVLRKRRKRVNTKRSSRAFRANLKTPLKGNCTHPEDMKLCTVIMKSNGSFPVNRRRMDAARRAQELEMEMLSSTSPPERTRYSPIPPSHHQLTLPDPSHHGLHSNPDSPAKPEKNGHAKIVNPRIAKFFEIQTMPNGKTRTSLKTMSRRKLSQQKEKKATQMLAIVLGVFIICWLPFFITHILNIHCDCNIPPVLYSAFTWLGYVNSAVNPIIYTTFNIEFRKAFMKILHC

For the molecule `NC1CCc2cc(O)c(O)cc2C1` (centres undefined), the inhibitory constant (Ki) was 6.1 nM and 24 nM.
For `CC(C)C[C@H]1C(=O)N2CCC[C@H]2[C@]2(O)O[C@](NC(=O)[C@@H]3C=C4c5cccc6[nH]c(Br)c(c56)C[C@H]4N(C)C3)(C(C)C)C(=O)N12` [Bromocriptine+ (GTP+)] the value was 83 nM and 54 nM; for `CN(C)CCCSc1ccccc1NC(=O)/C=C/c1ccccc1` [CINANSERIN], greater than 10000 nM; for `O=C(O)c1ccccc1C(=O)Nc1cccc2ccccc12` [NPA,(+)], 4.8 nM.
